# In patent EP1108430A1, “CALCIUM CHANNEL ANTAGONISTS” (Nippon Shinyaku Co., Ltd., priority 1998, dated 2000):
# Key:
# L-type Ca^2+ channel = assay type: cell-based, mouse; settings: 3∼30 µM; Dunnett's test; Fig. 1
# P/Q-type Ca^2+ channel = P/Q-type Ca^2+ channel (Mus musculus, UniProt P97445); assay: KCl-induced NOS activation in the presence of 1 µM nifedipine (response mediated by the P/Q-type channel); assay type: cell-based
# [1] = test system: mouse cerebral cortex-derived primary cultured neurons; assay: Elevation of intracellular calcium ion concentration under high-potassium stimulation (fura-2/AM 2-wavelength fluorescence); assay type: cell-based; settings: 1 - 30 µM; added 10 minutes before the second stimulation; Fig. 2; Dunnett's test, p<0.01
# Procedure: In the dish (the bottom opening fitted with cover glass) used for the measurement of calcium ion concentration, neurons on day 5 of culture were allowed to take up the fluorescent calcium probe fura-2/AM before determination. Thus, cultured neurons were incubated in 10 mM HEPES-NaOH buffer (pH 7.05) containing 10 µM fura-2/AM, 5.4 mM KC1, 130 mM NaCl, 2.5 mM CaCl2 and 5.5 mM D-glucose at 37°C for 30 minutes to let fura-2/AM taken up in the cells. Thereafter, incubation was further continued for 30 minutes, whereby the fura-2/AM taken up in the cells was converted to fura-2 by endogenous esterase activity. […]
# The calcium ion concentration was determined by the method of Grynkiewicz et al. (1985). Thus, by fluorescent microscope-image processing, the calcium ion concentration was determined from the fluorescence intensities of fura - 2/Ca^2+ at the exciting wavelengths of 340 nm and 380 nm. Using Argus-50/CA System (Hamamatsu Photonics), a calibration curve constructed beforehand was transformed to find the intracellular calcium ion concentration from the fluorescence intensity ratio.
# The high-potassium stimulus was given twice, 15 minutes apart and for 15 seconds each, and the ratio of increase in free calcium ion concentration in response to the stimulations was calculated. […]
# [2] = test system: dopamine release from the rat striatum; assay: In vivo dopamine release from the striatum (microdialysis); settings: for effect on dopamine release: rat, in vivo
# Procedure: The release of dopamine from the rat striatum was measured by the in vivo microdialysis method. A microdialysis probe fitted with a microinjection cannula was inserted into the striatum of an 8∼10·week·old male SD rat and the striatum was perfused with Ringer's solution at a rate of 2 µl/min.
# Beginning 2 hours after the start of perfusion, the perfusate was recovered at a 20-minute interval and the dopamine in each perfusate was measured with a high-performance liquid chromatography-electrochemical detector. The drug was perfused into the striatum through the microdialysis probe or microinjected into the striatum via the microinjection cannula. The effect of the drug on the basal dopamine release was evaluated by comparing the values before and after stimulation and a statistical analysis was made by Dunnett's test. Then, to evaluate the effect of Compound 1A on KCl·stimulated dopamine release, the amount of dopamine released in the presence of Compound 1A (10 µM) (ipsilateral striatum) was compared with the amount of KCl-stimulated dopamine release in the absence of Compound 1A (contralateral striatum) and the difference was statistically analyzed by paired t-test.
# Therefore, with a microdialysis probe inserted bilaterally, one of the striatum was perfused with Ringer's solution (control side) and the other striatum with Compound 1A (10 µM). K^+ stimulation, 25∼80 mM, was consecutively given at a 20-minute interval.
# [3] = test system: nitric oxide synthase (NOS); assay: cells; assay type: cell-based, mouse
# P/Q-type Ca^2+ channel, sequence (P97445 whole entry): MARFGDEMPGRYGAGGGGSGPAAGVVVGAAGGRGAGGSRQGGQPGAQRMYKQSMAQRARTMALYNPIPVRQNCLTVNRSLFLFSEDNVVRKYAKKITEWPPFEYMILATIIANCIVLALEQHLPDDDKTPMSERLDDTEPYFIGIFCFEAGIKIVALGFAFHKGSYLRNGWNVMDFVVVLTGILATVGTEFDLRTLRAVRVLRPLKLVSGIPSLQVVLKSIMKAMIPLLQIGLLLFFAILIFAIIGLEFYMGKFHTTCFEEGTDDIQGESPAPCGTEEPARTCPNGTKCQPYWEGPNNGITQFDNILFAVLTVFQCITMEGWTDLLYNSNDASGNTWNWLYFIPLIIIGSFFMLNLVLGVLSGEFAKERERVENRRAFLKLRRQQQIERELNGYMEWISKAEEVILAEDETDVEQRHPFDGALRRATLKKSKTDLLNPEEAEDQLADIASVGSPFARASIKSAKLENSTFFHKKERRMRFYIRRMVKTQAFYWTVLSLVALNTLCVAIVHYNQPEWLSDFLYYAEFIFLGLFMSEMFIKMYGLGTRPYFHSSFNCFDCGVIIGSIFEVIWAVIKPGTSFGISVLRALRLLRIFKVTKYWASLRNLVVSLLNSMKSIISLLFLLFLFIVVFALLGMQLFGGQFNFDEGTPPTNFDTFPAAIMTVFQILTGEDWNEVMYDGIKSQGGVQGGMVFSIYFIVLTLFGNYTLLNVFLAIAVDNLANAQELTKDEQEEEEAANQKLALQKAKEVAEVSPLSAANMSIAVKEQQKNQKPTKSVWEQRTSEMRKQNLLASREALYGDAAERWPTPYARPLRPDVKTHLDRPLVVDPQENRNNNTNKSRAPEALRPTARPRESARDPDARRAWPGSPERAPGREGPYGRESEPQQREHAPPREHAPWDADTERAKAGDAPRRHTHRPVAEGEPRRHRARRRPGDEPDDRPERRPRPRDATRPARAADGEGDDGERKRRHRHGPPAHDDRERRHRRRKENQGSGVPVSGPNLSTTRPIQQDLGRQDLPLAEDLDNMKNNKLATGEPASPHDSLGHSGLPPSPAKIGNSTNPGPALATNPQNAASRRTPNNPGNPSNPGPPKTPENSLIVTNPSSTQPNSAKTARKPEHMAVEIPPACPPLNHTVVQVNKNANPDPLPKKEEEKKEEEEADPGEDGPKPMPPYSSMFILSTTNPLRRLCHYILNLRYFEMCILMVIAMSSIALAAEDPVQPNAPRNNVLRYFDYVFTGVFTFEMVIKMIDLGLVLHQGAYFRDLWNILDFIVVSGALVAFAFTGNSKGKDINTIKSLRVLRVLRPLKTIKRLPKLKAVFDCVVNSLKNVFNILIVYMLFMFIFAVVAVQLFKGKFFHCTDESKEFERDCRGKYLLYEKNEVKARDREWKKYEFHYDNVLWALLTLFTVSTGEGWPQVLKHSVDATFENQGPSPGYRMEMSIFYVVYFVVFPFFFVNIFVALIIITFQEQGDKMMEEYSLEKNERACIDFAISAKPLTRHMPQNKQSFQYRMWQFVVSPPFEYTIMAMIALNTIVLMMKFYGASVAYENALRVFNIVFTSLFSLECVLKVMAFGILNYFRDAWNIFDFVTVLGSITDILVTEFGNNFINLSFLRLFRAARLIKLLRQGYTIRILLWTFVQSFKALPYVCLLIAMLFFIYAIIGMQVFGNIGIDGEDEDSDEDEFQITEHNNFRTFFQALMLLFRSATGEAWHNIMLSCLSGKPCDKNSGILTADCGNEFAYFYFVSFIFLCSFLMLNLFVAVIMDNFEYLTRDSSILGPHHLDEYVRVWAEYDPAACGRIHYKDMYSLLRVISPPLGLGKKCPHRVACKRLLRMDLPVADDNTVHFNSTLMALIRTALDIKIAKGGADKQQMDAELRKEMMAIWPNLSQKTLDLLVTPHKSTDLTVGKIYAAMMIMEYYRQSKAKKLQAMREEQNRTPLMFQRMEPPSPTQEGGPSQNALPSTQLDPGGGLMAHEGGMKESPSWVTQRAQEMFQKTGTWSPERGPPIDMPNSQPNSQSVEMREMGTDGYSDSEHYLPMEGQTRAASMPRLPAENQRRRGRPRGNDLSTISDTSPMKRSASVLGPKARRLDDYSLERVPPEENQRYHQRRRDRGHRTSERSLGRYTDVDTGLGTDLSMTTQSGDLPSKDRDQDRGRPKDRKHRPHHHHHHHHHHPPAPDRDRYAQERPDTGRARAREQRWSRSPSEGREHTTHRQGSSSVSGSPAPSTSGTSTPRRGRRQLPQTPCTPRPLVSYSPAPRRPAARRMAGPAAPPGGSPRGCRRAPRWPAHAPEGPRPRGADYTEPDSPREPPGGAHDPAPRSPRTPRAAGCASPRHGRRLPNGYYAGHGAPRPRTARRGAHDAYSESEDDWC
compound,measurement,setting,value
"Cc1nc(OCCCCCN2CCCCC2)cc(-c2ccc(F)cc2)n1 [Compound 1A, 4-(4-fluorophenyl)-2-methyl-6-(5-piperidinopentyloxy)pyrimidine]",inhibition of the NOS activation in the presence of 0.1 µM ω-agatoxin IVA (the response mediated by the L-type Ca^2+ channel),L-type Ca^2+ channel,significant (P<0.01) and concentration-dependent inhibitions
same,inhibition of the response mediated by the P/Q-type Ca^2+ channel (NOS activation in the presence of 1 µM nifedipine),P/Q-type Ca^2+ channel; 10 µM,completely inhibited
same,inhibition of the NOS activation in the presence of 1 µM nifedipine (the response mediated by the P/Q-type Ca^2+ channel),"P/Q-type Ca^2+ channel; 3∼30 µM, Dunnett's test, Fig. 1",significant (P<0.01) and concentration-dependent inhibitions
same,inhibition of the high-potassium-stimulated increase in intracellular calcium ion concentration,[1],inhibit the high-potassium-stimulated increase in intracellular calcium ion concentration in a concentration-dependent manner
same,inhibition of dopamine release at 80 mM KCl,"[2]; 10 µM perfused into the striatum, 80 mM KCl, Fig. 3, p<0.05, paired t-test",inhibited dopamine release significantly
same,inhibitory effect on dopamine release under K^+ stimulation,"[2]; 10 µM perfused into the striatum, K^+ stimulation 25∼80 mM at a 20-minute interval, versus contralateral control side",marked inhibitory effects on dopamine release with an increasing potassium concentration
COC(=O)C1=C(C)NC(C)=C(C(=O)OC)C1c1ccccc1[N+](=O)[O-] [nifedipine],inhibition at 1 µM,"[3]; Mus musculus, Neuron, read-out: inhibition of NOS activated on high-potassium stimulation of neurons",~56%
ω-agatoxin IVA [reference compound],effect on dopamine release,[2],significant decrease (p<0.01)
same,inhibition of NOS activated on high-potassium stimulation of neurons,[3]; 0.1 µM,about 53%
ω-conotoxin GVIA [reference compound],effect on dopamine release,[2],significant decrease (p<0.01)
same,effect on the NOS activation by KCl stimulation,[3]; 5 µM,substantially no effect
